# Laboratory results published in patent US8975259B2, “Compositions and methods for inhibiting G protein signaling” (University of Rochester, priority 2007, dated 2015).
# “Also recorded” adds a separate entry of the source.
# Key:
# [1] = test system: ATP-dependent Ca2+ increase in differentiated HL-60 neutrophils; experiment: ATP-dependent Ca2+ increase in differentiated HL-60 neutrophils; assay type: cell-based, human; conditions: result in words
# Protocol: (Collins, et al. (1978) Proc. Natl. Acad. Sci. USA 75:2458; Collins, et al. (1979) J. Exp. Med. 149:969). Neutrophils were preloaded with fura-2 (1 μM), a fluorescent Ca^2+-sensitive indicator (Suh, et al. (1996) J. Biol. Chem. 271:32753), for 45 minutes, washed with HBSS and resuspended in 2 mL of indicator-free HBSS. An 140 μL aliquote of cells was added to a total of 2 mL HBSS. Fluorescence ratios were taken by dual excitation at 340 and 380 nm and emission at 510 nm. After a stable baseline was established, either DMSO or NSC119910 was added and incubated for 5 minutes. Subsequently, either fMLP or ATP agonists were added to activate release of Ca^2+ from intracellular stores.
# [2] = test system: acute morphine antinociceptive tolerance in mice; experiment: Acute morphine antinociceptive tolerance (repeated i.c.v. dosing, tail-flick); assay type: in vivo, mouse
# [3] = test system: isoproterenol-induced heart failure in mice; experiment: Isoproterenol mini-osmotic pump acute model of heart failure; assay type: in vivo, mouse; conditions: result in words
# Protocol: Conscious echocardiography was performed on animals prior to sacrifice. % FS is a measure of cardiac contractility derived from end-diastolic and end-systolic diameters. […] Heart weight to body weight ratio (HW:BW) was assessed upon sacrifice of the animal. (n=7-8 per condition)
# Immunoblot for GRK2 of equal amounts of total protein isolated from hearts of adult C57/B16 male mice following 1 week of either vehicle or Iso (30 mg/kg/day) delivered by miniosmotic pumps (Veh, . . . or Iso, . . . , respectively) and concurrent daily vehicle or M119 (100 mg/kg) daily injections ( . . . , Veh, or . . . , Cmpd, respectively).
# Based on the positive cardiomyocyte data, the cardiac effects of M119 were tested in vivo. The NCI compound database and chemical library was originally assembled to investigate these compounds utilizing both a yeast high-throughput screening assay as well as in vivo compound delivery to mice for 1-2 weeks. […] Wild type mice were implanted with mini-osmotic pumps filled with either vehicle or the non-selective β-AR agonist isoproterenol. These pumps release a constant fluid volume, and 30 mg/kg/day of isoproterenol (Iso) has been used to attain pathologic cardiac hypertrophy and dysfunction in one week Immediately following mini-osmotic pump implantation of vehicle or Iso (30 mg/kg/day), mice from each group were injected intraperitoneal (IP) once daily with equal volumes of either vehicle or a moderate dose of M119 (100 mg/kg) for seven days. […] The Iso pumped animals indeed suffered a decrease of cardiac function coupled with pathologic hypertrophy.
# [4] = test system: fMLP-dependent Ca2+ release in differentiated HL60 cells; experiment: fMLP-dependent Ca2+ release in fura-2 loaded DMSO-differentiated HL60 cells; assay type: cell-based, human; conditions: 10 μM compound, 250 nM fMLP, result in words
# Protocol: (§1) Cells were pretreated with DMSO or 10 μM compounds for 5 min prior to stimulation with 250 nM fMLP. […] Normalized peak Ca^2+ responses were pooled from three independent experiments each (mean±SEM). Cells were pretreated with DMSO (▪) or compounds (▴) for 5 min prior to stimulation. FIG. 5C is the same as A except 10 μM M201 was tested. […] Differentiated HL60 cells were treated with 10 μM compound prior to stimulation with 250 nM fMLP. Translocation of endogenous GRK2 was determined by Western blotting with a GRK2 antibody and quantitative chemiluminescence. Data are mean±SEM from 5 experiments, * P<0.05, **P<0.01 ANOVA. […] Differentiated HL60 cells stably over-expressing GFP-PHAkt were treated with 10 μM compound prior to stimulation with 100 nM fMLP. Translocation of GFP-PHAkt to the membrane was determined by Western blotting with an anti-GFP antibody and quantitative chemiluminescence. Data are mean±SEM from 4 experiments. *** P<0.001 ANOVA. […] Differentiated HL60 cells were pretreated with 10 μM of compound prior to stimulation with 1 μM fMLP for 5 min. Levels of phosphorylated and total ERK were determined by Western blotting.
# Ca^2+ fluxes were measured using two 35 mL cultures of differentiated HL-60 neutrophil cultures (0.2×10^6 cells/mL). Cells were cultured for three days with in DMSO
# (1.2%), washed in HSS and resuspended in 2 mL HBSS at a concentration of 7×10^s cells/mL. Addition of DMSO to the growth medium induces differentiation of these cells into morphologically and functionally mature neutrophils
# (Collins, et al. (1978) Proc. Natl. Acad. Sci. USA 75:2458; Collins, et al. (1979) J. Exp. Med. 149:969). Neutrophils were preloaded with fura-2 (1 μM), a fluorescent Ca^2+-sensitive indicator (Suh, et al. (1996) J. Biol. Chem. 271:32753), for 45 minutes, washed with HBSS and resuspended in 2 mL of indicator-free HBSS. An 140 μL aliquote of cells was added to a total of 2 mL HBSS. Fluorescence ratios were taken by dual excitation at 340 and 380 nm and emission at 510 nm. After a stable baseline was established, either DMSO or NSC119910 was added and incubated for 5 minutes. […]
# [5] = test system: morphine-dependent antinociception in PLCβ3 −/− mice; experiment: 55° C. tail-flick antinociception in PLCβ3 −/− mice; assay type: in vivo, mouse; conditions: 100 nmol i.c.v.; result in words
# [6] = test system: human μ opioid receptor (hMOR-CHO cells); experiment: Total inositol phosphate assay in hMOR-CHO cells; assay type: cell-based; conditions: 10 μM; result in words
# Protocol: Chinese hamster ovary (CHO) cells stably expressing either the human κ (hKOR-CHO), δ (hDOR-CHO)(L. Toll, Stanford Research Institute, Palo Alto, Calif.) or μ (hMOR-CHO)(G. Uhl, National Institute on Drug Abuse, Baltimore, Md.) opioid receptor were used in the experiments. Cells in 6-well plates were labeled by adding 4 μCi of [^3H]inositol for 24 hr in inositol-free F-10 media, without serum. After labeling, LiCl was added directly to the labeling media at a final concentration of 10 mM. Ligands or peptides were added at the same time. The final volume of each well was 1 mL. The plates were put back in to the incubator at 37° C. for 30 min after which time the medium was aspirated and the plates were washed twice with 1× PBS. Ice-cold 50 mM formic acid, 1 mL, was added to the plates which were placed in the cold room at 4° C. for 30 min. After the incubation, the contents of the plates were applied to Dowex AG1-X8 columns and allowed to flow all the way through the column. The columns were washed, twice each, with 50 and 100 mM formic acid, for a total of four washes, followed by elution of the IP-containing fraction with 3 mL of 1.2 M ammonium formate/0.1 M formic acid. The eluted fraction was mixed with Scintisafe scintillation fluid, for high salt, and counted. The data are represented as the fold increase over control in total inositol phospates. All experiments were repeated three times and performed in duplicate. Control cells for each experiment were labeled with [^3H]inositol and LiCl, in the same manner as the treatment groups.
# [7] = test system: GRK2 translocation in differentiated HL60 cells; experiment: fMLP-dependent GRK2 translocation to membrane in differentiated HL60 cells; assay type: cell-based, human; conditions: 10 μM compound, 250 nM fMLP; result in words
# Protocol: as §1
smiles,measurement,setting,value
"O=C(O)C1CCCCC1c1c2ccc(=O)c(O)c-2oc2c(O)c(O)ccc12 (stereo not shown) [Compound M119, cyclohexanecarboxylic acid, 2-(4,5,6-trihydroxy-3-oxo-3H-xanthen-9-yl)-(9cl)]",effect on ATP-induced [Ca^2+] increase,[1],not significantly suppressed
same,ED50 of morphine co-administered with M119,[2]; 6 hr,0.22 nmol
same,ED50 of morphine co-administered with M119,[2]; time 0,0.16 nmol
same,effect on interstitial cardiac fibrosis,"[3]; Iso 30 mg/kg/day pump, M119 100 mg/kg IP daily, seven days",reduction in interstitial cardiac fibrosis
same,effect on cardiac function and morphology in Iso pumped animals,"[3]; Iso 30 mg/kg/day pump, M119 100 mg/kg IP once daily, seven days",near normalization of cardiac function and morphology
same,effect on GRK2 expression in the Iso HF model,[3]; M119 100 mg/kg IP daily,nearly normalized
same,effect of compound alone on cardiac function or morphology,"[3]; vehicle pump, M119 100 mg/kg IP daily",no effect
same,effect on fMLP-induced Ca^2+ increase,[4],attenuated
same,effect on fMLP-induced Ca^2+ increase,[4]; listed as NSC119910,suppressed; also recorded: block
same,effect on morphine-dependent antinociception in PLCβ3 −/− mice,[5],no effect
same,effect of compound by itself on IP production,[6],no effect by itself
same,effect on DAMGO- and morphine-dependent IP production,[6],significantly attenuated
same,effect on fMLP-dependent GRK2 translocation to the membrane fraction,[7],substantially inhibited
